In ChEMBL document CHEMBL5108015, “4,6-Disubstituted-1H-Indazole-4-Amine derivatives with immune-chemotherapy effect and in vivo antitumor activity” (Eur J Med Chem, 2022):
Calls of active or inactive are those of the source. The rule behind the calls is not given here.

Assays:
[1] = target: T1, Tryptophan 2,3-dioxygenase (Homo sapiens, UniProt P48775); assay: Inhibition of human TDO
Target sequence in this assay (P48775 whole entry): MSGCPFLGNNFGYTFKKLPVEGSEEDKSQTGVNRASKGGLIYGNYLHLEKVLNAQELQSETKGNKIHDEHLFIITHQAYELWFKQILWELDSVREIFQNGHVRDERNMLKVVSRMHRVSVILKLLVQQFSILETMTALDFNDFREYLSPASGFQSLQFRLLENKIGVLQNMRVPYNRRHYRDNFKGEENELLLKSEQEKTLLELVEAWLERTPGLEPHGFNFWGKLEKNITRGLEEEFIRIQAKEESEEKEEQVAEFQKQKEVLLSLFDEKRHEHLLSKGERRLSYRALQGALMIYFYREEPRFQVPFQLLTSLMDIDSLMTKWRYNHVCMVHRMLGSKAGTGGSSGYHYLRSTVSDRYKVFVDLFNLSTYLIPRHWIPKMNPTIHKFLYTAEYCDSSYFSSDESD

[2] = target: T2, Indoleamine 2,3-dioxygenase 1 (Homo sapiens, UniProt P14902); assay: Inhibition of human IDO1
Target sequence in this assay (P14902 whole entry): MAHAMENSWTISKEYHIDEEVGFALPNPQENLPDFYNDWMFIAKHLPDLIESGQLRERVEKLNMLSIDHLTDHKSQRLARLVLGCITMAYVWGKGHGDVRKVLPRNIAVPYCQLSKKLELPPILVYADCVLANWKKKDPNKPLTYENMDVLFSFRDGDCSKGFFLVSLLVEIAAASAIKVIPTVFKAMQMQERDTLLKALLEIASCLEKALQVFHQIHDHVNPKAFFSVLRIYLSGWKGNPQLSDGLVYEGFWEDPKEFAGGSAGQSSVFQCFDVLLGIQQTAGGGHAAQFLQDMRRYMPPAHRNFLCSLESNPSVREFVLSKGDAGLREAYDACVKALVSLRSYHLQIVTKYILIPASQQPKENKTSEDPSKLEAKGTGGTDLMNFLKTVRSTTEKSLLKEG

[3] = target: T1, Tryptophan 2,3-dioxygenase; assay: Inhibition of TDO in HEK293-A cells transfected with pCMV-TDO2; type: cell-based
Target sequence in this assay (P48775 whole entry): as the sequence (P48775 whole entry) above

[4] = tested on: CT26; assay: Upregulation of CD8 expression in tumor of BALB/c mouse implanted with mouse CT26 cells at 12.5 to 50 mg/kg, IG administered every one day for 9 days by Hematoxylin staining based immunohistochemistry analysis; type: functional, organism-based; conditions: dose 12.5-50 mg/kg, time 9.0 day
[5] = tested on: B16; assay: Cytotoxicity against mouse B16 cells assessed as inhibition of cell growth incubated for 24 hrs by MTT assay; type: functional, cell-based; conditions: B16, 24 h
[6] = tested on: HEK293; assay: Cytotoxicity against HEK293 cells assessed as inhibition of cell growth at <10 uM incubated for 24 hrs by MTT assay; type: toxicity, cell-based; conditions: human, hek293, 24 h
[7] = Toxicity in BALB/c mouse implanted with mouse CT26 cells assessed as reduction in body weight at 12.5 to 50 mg/kg, IG administered every one day for 9 days and measured every 3 days; type: organism-based; conditions: in vivo, po, 216 h, dose 12.5-50 mg/kg, time 9 day
[8] = Cytotoxicity against […] cells assessed as inhibition of cell growth incubated for 24 hrs by MTT assay; type: functional, cell-based; conditions: Mus musculus, Hepa1-6, 24 h
[9] = target: T2, Indoleamine 2,3-dioxygenase 1; assay: (§1) Inhibition of N-terminal hexa-histidine tagged human IDO1 (12 to 403 residues) expressed in Escherichia coli Transetta (DE3) using L-tryptophan as substrate preincubated with enzyme for 10 mins followed by substrate addition and measured after 30 to 60 mins by microplate reader analysis
Target sequence in this assay (P14902 whole entry): as the sequence (P14902 whole entry) above

[10] = target: T2, Indoleamine 2,3-dioxygenase 1; assay: as §1, with “as substrate at 100 uM preincubated with” for “as substrate preincubated with”, “reader analysis relative to control” for “reader analysis”; conditions: time 40-70 min
Target sequence in this assay (P14902 whole entry, looked up): as the sequence (P14902 whole entry) above

[11] = target: T1, Tryptophan 2,3-dioxygenase; assay: (§2) Inhibition of N-terminal hexa-histidine tagged human TDO (19 to 388 residues) expressed in Escherichia coli Transetta (DE3) using L-tryptophan as substrate preincubated with enzyme for 10 mins followed by substrate addition and measured after 30 to 60 mins by microplate reader analysis
Target sequence in this assay (P48775 whole entry): as the sequence (P48775 whole entry) above

[12] = tested on: CT26; assay: Antitumor activity against mouse CT26 cells implanted in BALB/c mouse assessed as inhibition of tumor volume at 25 mg/kg, IG administered every one day for 9 days and measured every 3 days by vernier caliper analysis relative to control; type: functional; conditions: CT26, po, 216 h, time 9 day
[13] = tested on: H22; assay: Cytotoxicity against mouse H22 cells assessed as inhibition of cell growth incubated for 24 hrs by MTT assay; type: functional, cell-based; conditions: H22, 24 h
[14] = target: T1, Tryptophan 2,3-dioxygenase; assay: as §2, with “as substrate at 100 uM preincubated with” for “as substrate preincubated with”, “reader analysis relative to control” for “reader analysis”; conditions: time 40-70 min
Target sequence in this assay (P48775 whole entry, looked up): as the sequence (P48775 whole entry) above

[15] = tested on: CT26; assay: Antitumor activity against mouse CT26 cells implanted in BALB/c mouse assessed as reduction in tumor weight at 12.5 to 50 mg/kg, IG administered every one day for 9 days and measured every 3 days by vernier caliper analysis; type: functional, organism-based; conditions: dose 12.5-50 mg/kg, time 9.0 day
[16] = target: T1, Tryptophan 2,3-dioxygenase; assay: as §2, with “as substrate at 10 uM preincubated with” for “as substrate preincubated with”, “reader analysis relative to control” for “reader analysis”; conditions: time 40-70 min
Target sequence in this assay (P48775 whole entry, looked up): as the sequence (P48775 whole entry) above

[17] = tested on: Jurkat; assay: Cytotoxicity against human Jurkat cells assessed as inhibition of cell growth incubated for 24 hrs by MTT assay; type: functional, cell-based
[18] = tested on: HepG2; assay: Cytotoxicity against human HepG2 cells assessed as inhibition of cell growth incubated for 24 hrs by MTT assay; type: functional, cell-based; conditions: HepG2, 24 h
[19] = tested on: MOLM-13; assay: Cytotoxicity against human MOLM-13 cells assessed as inhibition of cell growth incubated for 24 hrs by MTT assay; type: functional, cell-based; conditions: MOLM-13, 24 h
[20] = tested on: CT26; assay: Antitumor activity against mouse CT26 cells implanted in BALB/c mouse assessed as reduction in tumor volume at 12.5 to 50 mg/kg, IG administered every one day for 9 days and measured every 3 days by vernier caliper analysis; type: functional, organism-based; conditions: dose 12.5-50 mg/kg, time 9.0 day
[21] = target: T2, Indoleamine 2,3-dioxygenase 1; assay: as §1, with “as substrate at 10 uM preincubated with” for “as substrate preincubated with”, “reader analysis relative to control” for “reader analysis”; conditions: time 40-70 min
Target sequence in this assay (P14902 whole entry, looked up): as the sequence (P14902 whole entry) above

[22] = tested on: CT26; assay: Downregulation of TNF-alpha expression in tumor of BALB/c mouse implanted with mouse CT26 cells at 12.5 to 50 mg/kg, IG administered every one day for 9 days by Hematoxylin staining based immunohistochemistry analysis; type: functional, organism-based; conditions: dose 12.5-50 mg/kg, time 9.0 day
[23] = tested on: CT26; assay: Downregulation of Foxp3 expression in tumor of BALB/c mouse implanted with mouse CT26 cells at 12.5 to 50 mg/kg, IG administered every one day for 9 days by Hematoxylin staining based immunohistochemistry analysis; type: functional, organism-based; conditions: dose 12.5-50 mg/kg, time 9.0 day
[24] = Toxicity in BALB/c mouse implanted with mouse CT26 cells assessed as reduction in body weight at 50 mg/kg, IG administered every one day for 9 days and measured every 3 days; type: organism-based; conditions: in vivo, po, 216 h, time 9 day
[25] = tested on: CT26; assay: Antitumor activity against mouse CT26 cells implanted in BALB/c mouse assessed as reduction in tumor volume at 50 mg/kg, IG administered every one day for 9 days and measured every 3 days by vernier caliper analysis relative to control; type: functional, organism-based; conditions: time 9.0 day
[26] = tested on: CT26; assay: Antitumor activity against mouse CT26 cells implanted in BALB/c mouse assessed as reduction in tumor weight at 50 mg/kg, IG administered every one day for 9 days and measured every 3 days by vernier caliper analysis; type: functional, organism-based; conditions: time 9.0 day
[27] = tested on: CT26; assay: Antitumor activity against mouse CT26 cells implanted in BALB/c mouse assessed as inhibition of tumor volume at 50 mg/kg, IG administered every one day for 9 days and measured every 3 days by vernier caliper analysis relative to control; type: functional; conditions: CT26, po, 216 h, time 9 day
[28] = tested on: CT26; assay: Antitumor activity against mouse CT26 cells implanted in BALB/c mouse assessed as inhibition of tumor volume at 30 mg/kg, IG administered every one day for 9 days and measured every 3 days by vernier caliper analysis relative to control; type: functional; conditions: CT26, po, 216 h, time 9 day
[29] = target: Tyrosine-protein kinase receptor UFO (Homo sapiens) (UniProt P30530); assay: Inhibition of human AXL at 2 uM by DiscoveryX Kinomescan assay relative to control
[30] = target: Receptor-type tyrosine-protein kinase FLT3 (Homo sapiens) (UniProt P36888); assay: Inhibition of human FLT3 at 2 uM by DiscoveryX Kinomescan assay relative to control
[31] = target: Tyrosine-protein kinase JAK1 (Homo sapiens) (UniProt P23458); assay: Inhibition of human JAK1 at 2 uM by DiscoveryX Kinomescan assay relative to control
[32] = target: RAF proto-oncogene serine/threonine-protein kinase (Homo sapiens) (UniProt P04049); assay: Inhibition of human c-Raf at 2 uM by DiscoveryX Kinomescan assay relative to control
[33] = target: Vascular endothelial growth factor receptor 2 (Homo sapiens) (UniProt P35968); assay: Inhibition of human KDR at 2 uM by DiscoveryX Kinomescan assay relative to control
[34] = target: DNA-dependent protein kinase catalytic subunit (Homo sapiens) (UniProt P78527); assay: Inhibition of human DNA-PK at 2 uM by DiscoveryX Kinomescan assay relative to control
[35] = target: Tyrosine-protein kinase Lyn (Homo sapiens) (UniProt P07948); assay: Inhibition of human LYN at 2 uM by DiscoveryX Kinomescan assay relative to control
[36] = target: Serine/threonine-protein kinase pim-1 (Homo sapiens) (UniProt P11309); assay: Inhibition of human PIM-1 at 2 uM by DiscoveryX Kinomescan assay relative to control
Serine/threonine-protein kinase pim-1 (Homo sapiens), sequence (P11309 whole entry, looked up): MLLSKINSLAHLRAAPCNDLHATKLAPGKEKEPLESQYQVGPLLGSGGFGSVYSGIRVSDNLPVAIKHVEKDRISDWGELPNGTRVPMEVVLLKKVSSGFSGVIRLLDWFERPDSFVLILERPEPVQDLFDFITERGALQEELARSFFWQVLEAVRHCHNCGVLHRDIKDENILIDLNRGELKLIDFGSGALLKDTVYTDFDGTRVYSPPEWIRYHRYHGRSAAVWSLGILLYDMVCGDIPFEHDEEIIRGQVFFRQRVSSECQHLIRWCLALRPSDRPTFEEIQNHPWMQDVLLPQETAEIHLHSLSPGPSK

[37] = target: Serine/threonine-protein kinase pim-2 (Homo sapiens) (UniProt Q9P1W9); assay: Inhibition of human PIM-2 at 2 uM by DiscoveryX Kinomescan assay relative to control
Serine/threonine-protein kinase pim-2 (Homo sapiens), sequence (Q9P1W9 whole entry, looked up): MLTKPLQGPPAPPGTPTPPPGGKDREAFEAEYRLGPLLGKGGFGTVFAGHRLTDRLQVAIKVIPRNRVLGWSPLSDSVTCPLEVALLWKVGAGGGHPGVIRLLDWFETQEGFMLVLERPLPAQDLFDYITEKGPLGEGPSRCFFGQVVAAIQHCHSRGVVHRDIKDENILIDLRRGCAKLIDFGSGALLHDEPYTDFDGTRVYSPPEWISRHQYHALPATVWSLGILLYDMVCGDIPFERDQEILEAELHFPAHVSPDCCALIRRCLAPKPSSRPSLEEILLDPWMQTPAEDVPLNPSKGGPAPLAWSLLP

[38] = target: Tyrosine-protein kinase Yes (Homo sapiens) (UniProt P07947); assay: Inhibition of human YES at 2 uM by DiscoveryX Kinomescan assay relative to control
[39] = target: Platelet-derived growth factor receptor alpha (Homo sapiens) (UniProt P16234); assay: Inhibition of human PDGFRalpha at 2 uM by DiscoveryX Kinomescan assay relative to control
[40] = target: Serine/threonine-protein kinase B-raf (Homo sapiens) (UniProt P15056); assay: Inhibition of human B-Raf at 2 uM by DiscoveryX Kinomescan assay relative to control
[41] = target: Tyrosine-protein kinase JAK3 (Homo sapiens) (UniProt P52333); assay: Inhibition of human JAK3 at 2 uM by DiscoveryX Kinomescan assay relative to control
Tyrosine-protein kinase JAK3 (Homo sapiens), sequence (P52333 whole entry): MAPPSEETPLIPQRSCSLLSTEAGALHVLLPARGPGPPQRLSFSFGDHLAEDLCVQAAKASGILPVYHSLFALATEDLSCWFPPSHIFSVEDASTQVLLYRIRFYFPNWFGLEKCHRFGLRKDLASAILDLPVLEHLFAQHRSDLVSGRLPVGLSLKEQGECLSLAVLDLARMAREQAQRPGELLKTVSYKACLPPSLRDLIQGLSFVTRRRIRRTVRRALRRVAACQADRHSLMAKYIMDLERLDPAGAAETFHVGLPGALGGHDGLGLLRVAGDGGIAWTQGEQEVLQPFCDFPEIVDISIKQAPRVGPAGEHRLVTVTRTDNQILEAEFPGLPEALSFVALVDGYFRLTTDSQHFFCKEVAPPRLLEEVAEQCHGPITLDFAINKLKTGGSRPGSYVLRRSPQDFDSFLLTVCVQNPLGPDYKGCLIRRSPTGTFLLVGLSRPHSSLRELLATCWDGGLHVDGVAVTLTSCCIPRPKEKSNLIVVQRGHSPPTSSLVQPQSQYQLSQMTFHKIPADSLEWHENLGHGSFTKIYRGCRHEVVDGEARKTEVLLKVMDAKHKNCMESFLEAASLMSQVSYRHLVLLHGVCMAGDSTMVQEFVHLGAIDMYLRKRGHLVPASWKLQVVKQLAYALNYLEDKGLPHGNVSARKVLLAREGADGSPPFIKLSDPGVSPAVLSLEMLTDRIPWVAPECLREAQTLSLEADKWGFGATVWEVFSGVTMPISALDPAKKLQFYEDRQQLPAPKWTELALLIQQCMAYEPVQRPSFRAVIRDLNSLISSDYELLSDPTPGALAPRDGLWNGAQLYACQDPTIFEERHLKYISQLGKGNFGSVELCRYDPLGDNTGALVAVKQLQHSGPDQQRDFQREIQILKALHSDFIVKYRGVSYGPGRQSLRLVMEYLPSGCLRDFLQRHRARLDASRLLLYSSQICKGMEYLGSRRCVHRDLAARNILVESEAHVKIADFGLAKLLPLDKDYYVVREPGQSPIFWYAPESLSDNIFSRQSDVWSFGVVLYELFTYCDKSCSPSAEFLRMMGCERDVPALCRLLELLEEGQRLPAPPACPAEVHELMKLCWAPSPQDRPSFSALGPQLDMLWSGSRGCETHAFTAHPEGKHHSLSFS

[42] = target: Tyrosine-protein kinase JAK2 (Homo sapiens) (UniProt O60674); assay: Inhibition of human JAK2 at 2 uM by DiscoveryX Kinomescan assay relative to control
Tyrosine-protein kinase JAK2 (Homo sapiens), sequence (O60674 whole entry): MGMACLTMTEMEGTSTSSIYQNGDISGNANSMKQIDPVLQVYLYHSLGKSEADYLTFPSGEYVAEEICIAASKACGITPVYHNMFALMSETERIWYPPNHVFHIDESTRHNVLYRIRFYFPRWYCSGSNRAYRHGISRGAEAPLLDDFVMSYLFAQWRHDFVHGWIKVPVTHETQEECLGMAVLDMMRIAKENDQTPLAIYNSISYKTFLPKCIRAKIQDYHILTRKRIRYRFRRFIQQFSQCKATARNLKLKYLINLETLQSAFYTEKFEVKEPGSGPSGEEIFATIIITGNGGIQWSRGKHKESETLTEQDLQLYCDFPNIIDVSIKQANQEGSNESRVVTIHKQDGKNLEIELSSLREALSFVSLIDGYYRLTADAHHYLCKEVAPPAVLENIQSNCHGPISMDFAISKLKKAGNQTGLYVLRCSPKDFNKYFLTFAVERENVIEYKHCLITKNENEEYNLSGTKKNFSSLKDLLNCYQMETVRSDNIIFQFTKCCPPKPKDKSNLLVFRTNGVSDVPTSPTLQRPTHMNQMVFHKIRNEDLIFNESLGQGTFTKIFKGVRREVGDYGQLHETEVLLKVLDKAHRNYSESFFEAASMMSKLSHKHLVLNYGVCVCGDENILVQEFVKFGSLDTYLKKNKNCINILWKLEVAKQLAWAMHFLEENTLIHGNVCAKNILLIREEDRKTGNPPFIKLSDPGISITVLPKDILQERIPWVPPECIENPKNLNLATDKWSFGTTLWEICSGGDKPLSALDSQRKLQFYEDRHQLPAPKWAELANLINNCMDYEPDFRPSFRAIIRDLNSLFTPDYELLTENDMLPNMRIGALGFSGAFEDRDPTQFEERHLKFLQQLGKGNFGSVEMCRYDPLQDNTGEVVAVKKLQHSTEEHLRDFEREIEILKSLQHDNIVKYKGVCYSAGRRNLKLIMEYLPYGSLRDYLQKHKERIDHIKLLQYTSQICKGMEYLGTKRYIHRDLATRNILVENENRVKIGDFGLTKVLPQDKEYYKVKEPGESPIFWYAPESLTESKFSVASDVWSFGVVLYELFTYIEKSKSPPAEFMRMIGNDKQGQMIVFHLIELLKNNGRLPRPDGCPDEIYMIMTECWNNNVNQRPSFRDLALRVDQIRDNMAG

[43] = target: Tyrosine-protein kinase BTK (Homo sapiens) (UniProt Q06187); assay: Inhibition of human BTK at 2 uM by DiscoveryX Kinomescan assay relative to control
Tyrosine-protein kinase BTK (Homo sapiens), sequence (Q06187 whole entry): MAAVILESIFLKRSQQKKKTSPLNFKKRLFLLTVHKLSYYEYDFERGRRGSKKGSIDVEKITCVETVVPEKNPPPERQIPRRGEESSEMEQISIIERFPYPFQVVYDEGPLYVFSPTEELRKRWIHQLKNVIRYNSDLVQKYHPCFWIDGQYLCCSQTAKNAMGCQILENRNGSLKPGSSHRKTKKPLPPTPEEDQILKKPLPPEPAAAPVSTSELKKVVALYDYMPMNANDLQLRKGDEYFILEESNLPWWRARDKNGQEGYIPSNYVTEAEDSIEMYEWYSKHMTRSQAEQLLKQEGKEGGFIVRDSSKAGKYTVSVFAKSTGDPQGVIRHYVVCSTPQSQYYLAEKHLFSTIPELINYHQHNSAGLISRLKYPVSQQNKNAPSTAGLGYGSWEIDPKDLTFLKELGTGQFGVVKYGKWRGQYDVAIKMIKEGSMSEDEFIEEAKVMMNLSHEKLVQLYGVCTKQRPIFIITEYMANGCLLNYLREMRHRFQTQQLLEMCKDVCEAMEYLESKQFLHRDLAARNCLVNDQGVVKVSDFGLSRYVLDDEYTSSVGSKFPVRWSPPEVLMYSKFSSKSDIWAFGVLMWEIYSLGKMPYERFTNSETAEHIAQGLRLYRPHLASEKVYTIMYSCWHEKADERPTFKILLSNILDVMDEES

[44] = tested on: Receptor-type tyrosine-protein kinase FLT3 (Homo sapiens), P36888 [D835Y]; assay: Inhibition of human FLT3 D835Y mutant at 2 uM by DiscoveryX Kinomescan assay relative to control
[45] = target: Mast/stem cell growth factor receptor Kit (Homo sapiens) (UniProt P10721); assay: Inhibition of human c-KIT at 2 uM by DiscoveryX Kinomescan assay relative to control

| SMILES | IC50 [1] [µM] | IC50 [2] [µM] | IC50 [9] [µM] | inhibition [10] [%] | IC50 [11] [µM] | inhibition [14] [%] | inhibition [16] [%] | inhibition [21] [%] | IC50 [5] [µM] | IC50 [8] [µM] | IC50 [13] [µM] | IC50 [17] [µM] | IC50 [18] [µM] | IC50 [19] [µM] | other results |
| --- | --- | --- | --- | --- | --- | --- | --- | --- | --- | --- | --- | --- | --- | --- | --- |
| NC(=O)Nc1ccc(-c2c[nH]c3cc(F)ccc23)cc1 | 0.078 | 0.049 | – | – | – | – | – | – | – | – | – | – | – | – | – |
| O=[N+]([O-])c1ccc(O)cc1CNc1cc(Br)cc2[nH]ncc12 | – | – | 0.91 | 98 | 0.46 | 99 | 96 | 92 | > 20 | > 20 | > 20 | > 20 | > 20 | > 20 | Activity [24]: Non-Toxic; Activity [25]: Active; Activity [26]: Active; inhibition in vivo at 50 mg/kg [27]: 60.5% |
| NS(=O)(=O)NCCNc1nonc1/C(=N/O)Nc1ccc(F)c(Br)c1 [EPACADOSTAT] | – | – | – | – | – | – | – | – | – | – | – | – | – | – | inhibition in vivo at 30 mg/kg [28]: 57.5% |
| O[C@@H]1c2ccnn2CC[C@H]1[C@H]1c2ccccc2-c2cncn21 | 0.13 | 4.5 | – | – | – | – | – | – | – | – | – | – | – | – | – |

More lines, main results first:

| IC50 [1] [µM] | IC50 [2] [µM] | IC50 [9] [µM] | inhibition [10] [%] | IC50 [11] [µM] | inhibition [14] [%] | inhibition [16] [%] | inhibition [21] [%] | SMILES | IC50 [5] [µM] | IC50 [8] [µM] | IC50 [13] [µM] | IC50 [17] [µM] | IC50 [18] [µM] | IC50 [19] [µM] | other results |
| --- | --- | --- | --- | --- | --- | --- | --- | --- | --- | --- | --- | --- | --- | --- | --- |
| – | – | > 100 | 62 | 0.62 | 92 | 90 | 36 | Cc1ccc(CNc2cc(C(F)(F)F)cc3[nH]ncc23)c([N+](=O)O)c1 | 37.4 | 5.08 | 1.34 | 7.25 | 0.54 | 3.43 | IC50 [3]: 0.06 µM; Activity [4]: Active; Activity [6]: Non-Toxic; Activity [7]: Non-Toxic; inhibition in vivo at 25 mg/kg [12]: 76.9%; Activity [15]: Active; Activity [20]: Active; Activity [22]: Active; Activity [23]: Active |
| – | – | 13.9 | 76 | 2.55 | 95 | 89 | 35 | O=[N+]([O-])c1ccccc1CNc1cc(C(F)(F)F)cc2[nH]ncc12 | > 20 | 7.58 | 9.01 | > 20 | 7.76 | 2.35 | inhibition [29]: 33%; inhibition [30]: 93%; inhibition [31]: 66%; inhibition [32]: 31%; inhibition [33]: 100%; inhibition [34]: 0%; inhibition [35]: 50%; inhibition [36]: 78%; inhibition [37]: 4%; inhibition [38]: 33%; inhibition [39]: 23%; inhibition [40]: 27%; inhibition [41]: 78%; inhibition [42]: 35%; inhibition [43]: 12%; inhibition [44]: 96%; inhibition [45]: 61% |
